Patent publication US11690834B2, “Composition, uses, and methods of treating spinal disc degeneration through sonic hedgehog signaling pathway” (New York Society For the Relief Of The Ruptured and …, priority 2017, dated 2023)
Entries after “also recorded” stand apart in the source; their conditions may differ.

Assays:
[1] = tested on: one-year-old mouse disc; settings: in vitro; cited from earlier work
[2] = tested on: SHH signaling pathway in the intervertebral disc; assay: Intraperitoneal SAG in adult mice, real-time RT-qPCR of lumbar discs for SHH and its downstream targets; type: in vivo, mouse; settings: i.p., 10 mg/kg body weight, every day for seven days, vs water
Procedure: To test the potential for activation of SHH or SHH signaling for disc therapy and treatment of lower back pain, a small molecule agonist of hedgehog signaling pathway called SAG that activates the smoothened receptor downstream of the ligand was administered to mice. Adult mice were administered intraperitoneally either with water or SAG dissolved in water at a concentration of with 10 mg/kg body weight. The mice were treated every day for seven days. Next day, the lumbar discs were collected for RNA isolation and real-time RT-qPCR analysis for SHH and its downstream targets. […] Upregulation of SHH mRNA expression was also associated with an increase in the expression of its downstream targets Ptch1 and Gli1.

[3] = tested on: SHH signaling pathway in the intervertebral disc; assay: as above; type: in vivo, mouse; settings: middle-aged mice, intraperitoneal injection

Structure (SMILES) | ECM production [1] | increase in cell proliferation [1] | stimulation of Hedgehog signaling [1] | expression of ECM marker Col2 [2] | expression of ECM marker Sox9 [2] | expression of downstream target Gli1 [2] | expression of downstream target Ptch1 [2] | mRNA expression of SHH compared to controls [2] | expression of ECM protein ACAN [3]
O=C1Nc2cc(Br)ccc2/C1=C1/Nc2ccccc2/C1=N\O [BIO] | increased | Not observed | increased |  |  |  |  |  | 
CNC1CCC(N(Cc2cccc(-c3ccncc3)c2)C(=O)c2sc3ccccc3c2Cl)CC1 (stereo not drawn) [SAG] |  |  |  | increased expression; also recorded: upregulation | increased expression; also recorded: upregulation | increase; also recorded: upregulation | increase; also recorded: upregulation | increased; also recorded: up-regulation | upregulation
